Reference: paper PMC12027554, “Inhibition of ABCG2 by SCO-101 Enhances Chemotherapy Efficacy in Cancer” (International Journal of Molecular Sciences, 2025)

What was measured:
HT29SN-38 cells = assay: Colony formation assay; assay type: cell-based, human; details: 7 days
Protocol: Cells were trypsinized and counted, and 400 cells/well were seeded in 24-well plates. Drug treatments were performed 24 h after seeding for a total duration of 6 (LoVo) or 7 (HT29) days. Next, media were removed, and cells were washed with PBS and stained with 250 μL Crystal Violet solution for 10 min. Crystal Violet was then removed, plates rinsed with tap water, images captured, and colonies counted using the ImageJ software (version 1.54p). Survival fraction and plating efficiency (PE) were calculated as follows: Survival Fraction=number of colonies/number of cells plated ∗ PE PE=number of colonies formed in control/number of cells seeded

[1] = parameters: method as in PMID 32628359; details: four independent Phase I studies; cited from earlier work
ABCG2 = biological target: T1, ABCG2 (Homo sapiens, UniProt Q9UNQ0); assay: Efflux transporter inhibition, vesicular uptake into inside-out membrane vesicles (ABCG2); assay type: biochemical; parameters: purchased SOLVO biotechnology, Budapest, Hungary
T1 sequence (Q9UNQ0 1-655): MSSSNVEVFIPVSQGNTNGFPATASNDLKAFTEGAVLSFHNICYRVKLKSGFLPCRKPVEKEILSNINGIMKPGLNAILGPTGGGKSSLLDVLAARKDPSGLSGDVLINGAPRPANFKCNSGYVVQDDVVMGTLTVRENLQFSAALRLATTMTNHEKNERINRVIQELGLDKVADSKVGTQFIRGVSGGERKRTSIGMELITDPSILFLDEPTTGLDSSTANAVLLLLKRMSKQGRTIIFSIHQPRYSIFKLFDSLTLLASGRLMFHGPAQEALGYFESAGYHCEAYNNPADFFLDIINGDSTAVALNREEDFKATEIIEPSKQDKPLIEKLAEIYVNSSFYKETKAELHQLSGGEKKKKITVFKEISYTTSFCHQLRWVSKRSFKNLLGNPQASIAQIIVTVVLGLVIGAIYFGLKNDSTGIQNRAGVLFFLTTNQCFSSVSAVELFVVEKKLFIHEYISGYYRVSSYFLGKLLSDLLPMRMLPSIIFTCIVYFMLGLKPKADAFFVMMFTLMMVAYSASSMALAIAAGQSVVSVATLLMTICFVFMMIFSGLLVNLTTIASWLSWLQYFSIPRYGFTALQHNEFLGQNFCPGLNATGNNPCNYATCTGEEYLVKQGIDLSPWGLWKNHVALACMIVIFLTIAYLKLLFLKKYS
Protocol: Efflux transporter inhibition was evaluated by measuring vesicular uptake into inside-out membrane vesicles (SOLVO biotechnology, Budapest, Hungary) expressing a single human ABC transporter (0.67 mg/mL ABCB1; 0.67 mg/mL ABCC2; 0.33 mg/mL ABCG2 membrane protein) of a probe substrate (1 μM N-methyl-quinidine for ABCB1; 100 μM 5(6)-carboxy-2′,7′-dichlorofluorescein for ABCC2; 1 μM Eestrone-3-sulfate for ABCG2) in the presence of SCO-101 with and without ATP (4 mM) in 96-well plate format. Control solvent and control inhibitors (4–60 μM verapamil for […]; 1–15 μM sulfasalazine for ABCG2; 5.5–150 μM benzbromarone for ABCC2) were incubated in parallel. Vesicular uptake was conducted at 37 °C in incubation buffer (10 mM Tris-HCl, pH 7.4, 10 mM MgCl2, 250 mM sucrose) and terminated after 1 min (ABCB1 and ABCG2) or 5 min (ABCC2) by adding ice-cold washing buffer (10 mM Tris-HCl, pH 7.4, 100 mM NaCl, 250 mM sucrose). […] Probe quantification was conducted using LC-MS/MS peak areas (solvent control with ATP − AMP = 100%). […] The remaining transporter activity % was calculated according to the formula below, and fitting was performed using GraphPad Prism: A%=AATP,sample−AAMP,sample/AATP,solvent−AAMP,solvent

IC50 (ABCG2; ABCG2 inside-out vesicles, 1 μM estrone-3-sulfate, SCO-101 0.001–300 µM, read-out: IC50, ATP-dependent vesicular uptake of probe substrate (remaining ABCG2 activity)): 160 nM
IC50 for MDR1/ABCB1 and MRP2/ABCC2 relative to ABCG2 (ABCG2; selectivity for ABCG2): > 100 fold
SMILES: O=C(Nc1cc(C(F)(F)F)cc(C(F)(F)F)c1)Nc1ccc(Br)cc1-c1nnn[nH]1 [SCO-101, N-[4-Bromo-2-(1H-1,2,3,4-tetrazol-5-yl)phenyl]-N′-[3,5-bis(trifluoromethyl)phenyl]urea]
colony formation ability (survival fraction) (HT29SN-38 cells; 10 µM SCO-101 alone): did not affect
colony formation ability, SCO-101 in combination with SN-38 (HT29SN-38 cells; SCO-101 0–20 µM + SN-38 0.01 μM, vs SCO-101 alone): significant reduction
toxicity [1]: low SCO-101 toxicity
